Here are results for 1 molecule from patent US20240124503A1, “HETEROAROMATIC PHOSPHONIUM SALTS AND THEIR USE TREATING CANCER” (FLORATEK PHARMA S.A., priority 2021, published 2024).

One may read the Kd as a measure of binding affinity in units of concentration. The term IC50 denotes the concentration at which inhibition is half-maximal.

In one test the target is T1, TIE2 (Homo sapiens, UniProt Q02763).
T1 construct: purchased Eurofins (KINOMEscan); host or cells: E. coli BL21-derived host (T7 phage) or HEK-293
In words: KINOMEscan competition binding, TIE2. The protocol:
Selected compounds were screened for kinase inhibition using the KINOMEscan™ assay (Eurofins) which is based on a competition binding assay that quantitatively measures the ability of a compound to compete with an immobilized, active-site directed ligand. The assay was performed by combining three components: DNA-tagged kinase; immobilized ligand; and the test compound. The ability of the test compound to compete with the immobilized ligand was measured via quantitative PCR of the DNA tag.
Kinase-tagged T7 phage strains were prepared in an E. coli host derived from the BL21 strain. E. coli were grown to log-phase and infected with T7 phage and incubated with shaking at 32° C. until lysis. The lysates were centrifuged and filtered to remove cell debris. The remaining kinases were produced in HEK-293 cells and subsequently tagged with DNA for qPCR detection. Streptavidin-coated magnetic beads were treated with biotinylated small molecule ligands for 30 minutes at room temperature to generate affinity resins for kinase assays. […] Kds were determined using an 11-point 3-fold compound dilution series with three DMSO control points. […] The kinase concentration in the eluates was measured by qPCR. […]
Binding constants (Kds) were calculated with a standard dose-response curve using the Hill equation: Response=Background+[Signal−Background/1+(Kd^Hill Slope/Dose^Hill Slope)] […]

A further test concerns lung PDX. In words: Cell viability, lung PDX (panel statement). It counts as cell-based. The conditions noted are these: text summary of Table 15; read-out: IC50, lung PDX growth. The protocol: PDX-derived cell cultures were obtained from tumors explanted from mice and isolated by mechanical and enzymatic dissociation. […] Cells were harvested and seeded in 96-wells plates at a density of 1.25 to 5×10^3 cells/well for cytotoxicity assays. Cells were incubated 48 h at 37° C. prior to addition of test molecules and vehicle (DMSO, 0.1%) at desired final concentrations. Cell viability was assessed before drugs' addition (To) and 5 days after test molecules addition by measuring ATP cell content using CellTiter-Glo® Luminescent Cell Viability Assay (Promega) according to the manufacturer's instructions. Luciferase activity was measured on a luminometer (PerkinElmer® EnVision™). Each concentration of compounds was tested in triplicate.
Viability was calculated as a percentage of ATP value compared to vehicle treated controls.
For PDX primary cell cultures, the tumour tissue was washed with PBS containing antibiotic-antimycotic and non-tumour tissue and necrotic tumour tissues were separated. The tumour tissue was transferred to a new dish and cut into 1˜2 mm^3 fragments, resuspended in RPMI-1640 medium and centrifuged at 1,200 rpm for 6 min at room temperature. The pelleted material was resuspended with 15 mL of Tumour Cell Digestion Solution and incubated at 37° C. for 1 hour with agitation. […]

Where only a bound is given, the exact number is not on record here.

T1 sequence (Q02763 23-1124): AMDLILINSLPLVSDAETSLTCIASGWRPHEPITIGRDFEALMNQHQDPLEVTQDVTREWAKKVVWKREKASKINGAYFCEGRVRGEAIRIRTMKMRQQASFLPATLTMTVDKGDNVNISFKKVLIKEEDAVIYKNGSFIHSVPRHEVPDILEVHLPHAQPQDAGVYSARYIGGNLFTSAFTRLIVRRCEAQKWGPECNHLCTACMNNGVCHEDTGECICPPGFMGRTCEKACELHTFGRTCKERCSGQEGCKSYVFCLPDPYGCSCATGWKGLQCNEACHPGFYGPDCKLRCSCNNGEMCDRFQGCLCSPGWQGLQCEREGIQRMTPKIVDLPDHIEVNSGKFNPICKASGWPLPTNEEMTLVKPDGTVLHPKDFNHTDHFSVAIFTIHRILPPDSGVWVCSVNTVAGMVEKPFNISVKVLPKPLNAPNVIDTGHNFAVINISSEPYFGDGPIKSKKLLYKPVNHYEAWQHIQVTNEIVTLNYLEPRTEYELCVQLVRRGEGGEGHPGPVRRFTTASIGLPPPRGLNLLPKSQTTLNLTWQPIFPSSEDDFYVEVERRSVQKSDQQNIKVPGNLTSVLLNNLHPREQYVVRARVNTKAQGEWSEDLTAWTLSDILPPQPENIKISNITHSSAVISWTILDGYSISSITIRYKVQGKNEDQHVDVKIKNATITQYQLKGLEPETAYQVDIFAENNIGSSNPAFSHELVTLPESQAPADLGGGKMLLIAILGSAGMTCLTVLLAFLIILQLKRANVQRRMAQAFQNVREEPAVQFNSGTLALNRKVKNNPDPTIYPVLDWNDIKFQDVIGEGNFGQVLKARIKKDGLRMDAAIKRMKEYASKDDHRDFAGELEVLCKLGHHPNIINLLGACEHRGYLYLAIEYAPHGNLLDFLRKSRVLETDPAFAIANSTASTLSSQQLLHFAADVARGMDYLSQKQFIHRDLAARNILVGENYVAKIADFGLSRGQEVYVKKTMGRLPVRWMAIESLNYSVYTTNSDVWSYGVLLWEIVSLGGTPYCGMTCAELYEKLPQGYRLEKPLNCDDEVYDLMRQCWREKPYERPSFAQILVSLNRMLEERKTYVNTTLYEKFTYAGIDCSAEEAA

Molecule `COc1c(O)ccc2c(=O)c(O)c(-c3ccc(CCCC[P+](c4ccccc4)(c4ccccc4)c4ccccc4)cc3)oc12` [SND190, (4-(4-(3,7-Dihydroxy-8-methoxy-4-oxo-4H1-chromen-2-yl)phenyl)butyl)triphenylphosphonium bromide] showed a Kd at TIE2 of 0.04 µM. Moreover, the IC50 in the test on lung PDX was less than 20 µM.
